Results as given in US3996231A, “1-Quinolinyl-pyrazolidine derivatives” (Choay S.A., priority 1973, dated 1976).
Like-named read-outs stand apart in the source and are kept apart here.

How the values were obtained:
Experimental pleurisy = Experimental pleurisy in the rat (terebenthine essence); format: in vivo, Wistar rats; details: 6 hours
Procedure: The injection of terebenthine essence (0.1 ml) into the bottom of the diaphragmatic sack of the rat causes in the hours which follow a vascular parietal reaction which leads to the formation of an inflammatory type pleurisy.
The average volume of the pleural exudate (taken up after opening the thoracic cage of the previously sacrificed animals) increases gradually in control animals to reach 6 to 7 ml towards the sixth hour, this volume remaining constant to the forty-eighth hour. The exudate is accompanied by the diapedesis of the formed elements of the blood and by the increase in the mobile cells of the conjunctive tissue. Five days after the injection of the irritant agent, the cellular phase gives place to a tissular reaction which leads to the building of dense granulation tissue and to the production of adhesions between the lungs and the thoracic wall.
The action of an anti-inflammatory substance is manifested by a reduction in the volume of the pleural exudate measured for example 6 hours after the injection of the irritant agent and by a reduction in the intensity of the later tissular reaction.
Experiments in Wistar rats of 200 g divided into batches in the following manner were carried out:
1 control batch of 15 animals
batch of 60 animals (batch 3) also divided into subgroups, each of them comprising 20 animals which have been treated with the doses indicated in Table V
6 batches of 15 animals, respectively treated with anti-inflammatory substances for comparison identified above.
The substances to be tested were administered by mouth 30 minutes before the injection of the irritant substance. The doses of these known anti-inflammatories correspond to their normal experimental doses. The results indicated in the Table V correspond to the reductions expressed as % of the average volumes of pleural exudate taken up 6 hours after the irritant injection and observed in the treated animals relative to the average volumes measured in the controls.

[1] = tested on: Arthritis by Freund adjuvant; experiment: Arthritis by Freund adjuvant; format: in vivo, rat; details: 50 mg/kg per day
Procedure: The injection of 0.5 ml of Freund adjuvant (product sold by the Difco Company) into the plantar pad of the rear foot of a rat of 90 days, causes a chronic polyarthritis.
This injection causes an inflammation first localised in the injected foot, then generalised. The blocking of the articulations appears between the 10th and the 20th days.
In a series of rats thus treated there are selected, 10 days after the injection of the Freund adjuvant, 50 rats having complete blockage of the articulations.

[2] = tested on: transmission of painful stimuli; experiment: Caroll and Lim test; format: in vivo, rat; details: 50 mg/kg by mouth
Excerpt: This test (Arch. Int. Pharmacodyn., 1960, CXXV, 383-403) enables the study of the effect of analgesics on the transmission of painful stimuli, by means of electrodes placed on the tail of the rat and connected to a "stimulator" constituted by a source adapted to supply an alternating current of 60 Hz frequency at increasing voltages. The three voltages (thresholds S1, S2, S3) at which there are successively obtained:
Threshold S1 : characteristic retraction movement of the tail
Threshold S3 : a cry which continues after interrupting the stimulation.
The analgesic substances administered to a group of 15 rats have the effect of increasing the values of these thresholds. This is what have been observed with the substance according to the invention, administered by mouth at the dose of 50 mg/kg. The average increases, expressed as % with respect to the average corresponding thresholds observed in 15 animals of a control series, are indicated in Table VIII below.

[3] = Acute oral toxicity / LD50 in the mouse; details: in vivo, po
Procedure: (§1) LD50 were determined in the mouse and the rat. The substance was administered to the animals by the oral route in a single dose. The behaviour of the animals was observed during the six days which followed. The statistical calculations were done by the method of Miller L. C. Tainter M. L. (Proc. Soc. Exp. Biol. Med., 1944 57 261/264/264).

mouse = experiment: Acute oral toxicity / LD50 in the mouse; details: for Mortality: in vivo, po
Procedure: as §1

in vivo = details: rat, in vivo, po
Procedure: as §1

rat = experiment: in vivo
Procedure: as §1

all the animals = experiment: AD50 (active dose 50) and therapeutic index as shown by the above-mentioned tests; format: in vivo; details: for ED50: read-out: AD50 (active dose 50)
Solubility = format: physicochemical
[4] = comparison batch, 25 mg/kg by mouth
[5] = comparison batch, 50 mg/kg by mouth
[6] = relative to the values of the invention's substance

With `CCCCC1C(=O)NN(c2ccnc3cc(Cl)ccc23)C1=O` (stereo not drawn) [1-(7'-chloro 4'-quinolinyl) 3,5-dioxo 4-n-butyl pyrazolidine] the “Reduction of average volume of pleural exudate” value (from here on “Reduction”) (Experimental pleurisy; Batch No. 1, 12.5 mg/kg by mouth) was -24%, the “Reduction” value (Experimental pleurisy; Batch No. 1, 25 mg/kg by mouth) was -35% and the “Reduction” value (Experimental pleurisy; Batch No. 1, 50 mg/kg by mouth) was -45%. The “Reduction” value (Experimental pleurisy; Batch No. 2, 12.5 mg/kg by mouth) was -23%, the “Reduction” value (Experimental pleurisy; Batch No. 2, 25 mg/kg by mouth) was -38% and the “Reduction” value (Experimental pleurisy; Batch No. 2, 50 mg/kg by mouth) was -55%. For the same compound, the “Reduction” value (Experimental pleurisy; Batch No. 3, 12.5 mg/kg by mouth) was -18%, the “Reduction” value (Experimental pleurisy; Batch No. 3, 25 mg/kg by mouth) was -28% and the “Reduction” value (Experimental pleurisy; Batch No. 3, 50 mg/kg by mouth) was -45%. For the same compound, the “Animals with at least partial deblocking of the articulations” value (“Animals with at least partial deblocking” below) ([1]; after 5 days of treatment) was “at least 25%”, the “Animals with at least partial deblocking” value ([1]; after 10 days of treatment) was no less than 50% and the “Animals with at least partial deblocking” value ([1]; after 15 days of treatment) was no less than 65%. For the same compound, the “Average increase of threshold S1” value ([2]; 11/2 hour) was 0, the “Average increase of threshold S1” value ([2]; 30 minutes) was 0 and the “Average increase of threshold S1” value ([2]; 1 hour) was 0. The “Average increase of threshold S1” value ([2]; 2 hours) was 0, the LD50 at 144 h [3] was roughly 2000 mg/kg and the mortality at 144 h ([3]; 1000 mg/kg) was 16%. The mortality at 144 h ([3]; 2000 mg/kg) was 50%, the mortality at 144 h ([3]; 4000 mg/kg) was 100% and the Mortality (mouse; 200 mg/kg) was “no death”. The Mortality (mouse; 500 mg/kg) was “no death”, the LD50 at 144 h (in vivo) was greater than 4000 mg/kg and the mortality at 144 h (in vivo; 4000 mg/kg) was 5%. For the same compound, the Mortality (rat; in vivo, po, 200 mg/kg) was “no death”, the Mortality (rat; in vivo, po, 500 mg/kg) was “no death” and the Mortality (rat; oral single dose, 1 g/kg) was “no death”. For the same compound, the Mortality (rat; oral single dose, 2 g/kg) was “no death”, the ED50 (all the animals; in all the animals, determined under similar conditions) was roughly 50 mg/kg and the therapeutic index (all the animals; in vivo) was “notably higher than that of phenylbutazone”. The solubility in alcohol (Solubility; alcohol) was “soluble”, the “solubility in solutions of potassium or of sodium carbonate” value (Solubility; solutions of potassium or of sodium carbonate) was “soluble” and the solubility in water (Solubility; water) was “insoluble”.
In the case of `Cc1cccc(Nc2ccccc2C(=O)O)c1C` [Ac. Mefenamic, Mefanamic acid, reference compound], the “Reduction” value (Experimental pleurisy; [4]) is reported as -30%.
For `O=C(O)c1ccccc1Nc1cccc(C(F)(F)F)c1` [Ac. flufenamic, Flufenamic acid, reference compound], the “Reduction” value (Experimental pleurisy; [4]) was -32%.
With `O=C(O)c1cccnc1Nc1cccc(C(F)(F)F)c1` [Ac. niflumic, Niflumic acid, reference compound] the “Reduction” value (Experimental pleurisy; [5]) was -30%.
With `COc1ccc2c(c1)c(CC(=O)O)c(C)n2C(=O)c1ccc(Cl)cc1` [Indomethacine, reference compound] the “Reduction” value (Experimental pleurisy; comparison batch, 5 mg/kg by mouth) was -33%.
With `CCCCC1C(=O)N(c2ccccc2)N(c2ccccc2)C1=O` [Phenylbutazone, reference compound] the “Reduction” value (Experimental pleurisy; comparison batch, 100 mg/kg by mouth) was -49%, the “LD50 (in words)” value (mouse; [6]) was “much lower than the above-indicated values” and the “LD50 (in words)” value (rat; [6]) was “much lower than the above-indicated values”. For the same compound, the ED50 (all the animals) was roughly 100 mg/kg.
With Clofezone [reference compound] the “Reduction” value (Experimental pleurisy; [5]) was -37%.
